Data: patent US20130059900A1, “CRYSTAL FORM I OF (S)-4-HYDROXY-2-OXO-1-PYRROLIDINE ACETAMIDE, PREPARING METHOD AND USE THEREOF” (priority 2010, published 2013)

Test system: rats having permanent occlusion of the bilateral carotid arteries
Test: Morris Water Maze, memory dysfunction of rats caused by chronic cerebral ischemia
Assay type: in vivo, SD male rats
Details: once per day for 37 days; for swimming time of the rats in the target: cerebral ischemia rats
Procedure: The protective effects of crystal form I of (S)-oxiracetam on memory dysfunction of rats caused by chronic cerebral ischemia. Material and method: The crystal form I of (S)-oxiracetam prepared in Example 1 and oxiracetam (batch number: 20071101, from Dong Ze Pharmaceutical Science and Technology Co., Ltd., Chong Qing, China) were prepared with normal saline solution freshly on being used. 40 SD male rats were used as experimental animals, and each of them was in a weight of 190 g to 220 g (purchased from Southwest Hospital, Chong Qing, China). The experimental animals were separated into four groups at random (10 animals per group): sham-operation group, cerebral ischemia group, experimental group with treatment of crystal form I of (S)-oxiracetam, control group with treatment of oxiracetam. The experimental group was treated with 100 mg/kg crystal form I of (S)-oxiracetam by intragastric administration, while the control group was treated with 200 mg/kg oxiracetam by intragastric administration, and both of the two group were treated once per day for 37 days since the day of beginning the surgery. The rats having permanent occlusion of the bilateral carotid arteries were used as model animals of cerebral ischemia group. The cerebral ischemia group, the experimental group and the control group were abdominally anaesthetized by 40 mg/kg pentobarbital natrium. The No. 4 threads were used to separate and ligate the bilateral carotid arteries. The arteries were cut at a position between the near and the far ligation points, and then the wounds made by cut were surgically stitched. The sham-operation group underwent surgery of separation of the bilateral carotid arteries and the wounds made by the surgeries were surgically stitched right away. The body temperature of the animals are maintained during the surgeries. Morris Water Maze system was used to assayed learning and memory ability of rats (diameter: 120 cm, height: 40 cm; purchased from Institute of Materia Medica (IMM), Chinese Academy of Medical Sciences & Peking Union Medical College). […]

NC(=O)CN1CC(O)CC1=O (racemic) [oxiracetam, reference compound]
swimming time of the rats in the target (200 mg/kg intragastric, oxiracetam control group): 31.23 ± 5.03 s

NC(=O)CN1C[C@@H](O)CC1=O [crystal form I of (S)-oxiracetam, (S)-4-hydroxy-2-oxo-1-pyrrolidine acetamide]
swimming time of the rats in the target (100 mg/kg intragastric, vs 20.18±5.26 seconds, P<0.01): 35.23 ± 7.03 s
escape latent periods (100 mg/kg intragastric, compared with sham-operation group, cerebral ischemia group and oxiracetam control group): shorter escape latent periods
